Assay: xn = mol fraction of the nth substance listed

C[n+]1ccn(CCCC#N)c1.O=S(=O)([O-])C(F)(F)F + CC#N
101 kPa
Conditions | electrical conductivity [S/m] | viscosity [mPa·s]
288.15 K, x1 = 0.1002 | 2.7 | 1.65
288.15 K, x1 = 0.2994 | 1.04 | 16.49
288.15 K, x1 = 0.5 | 0.185 | 109.8
293.15 K, x1 = 0.6005 | 0.22 | 119.8
298.15 K, x1 = 0.7996 | 0.114 | 307
303.15 K, x1 = 0.9007 | 0.082 | 330
303.15 K, x1 = 1 | 0.06 | 422
308.15 K, x1 = 0.2994 | 1.7 | 9.19
308.15 K, x1 = 1 | 0.08 | 310
313.15 K, x1 = 0.2002 | 2.88 | 3.74
313.15 K, x1 = 0.5 | 0.575 | 36.34
313.15 K, x1 = 0.7996 | 0.239 | 133.1
318.15 K, x1 = 0.1002 | 3.76 | 1.06
318.15 K, x1 = 0.5 | 0.679 | 29.94
318.15 K, x1 = 0.698 | 0.351 | 73.7
318.15 K, x1 = 0.9007 | 0.168 | 135
323.15 K, x1 = 0.1002 | 3.95 | 0.99
323.15 K, x1 = 0.6005 | 0.7 | 32.11

CCCCCCCC[N+](C)(CCCCCCCC)CCCCCCCC.[Br-] + CCCCCCCCCC(=O)O
100 kPa, x1 = 0.3333
Conditions | viscosity [mPa·s]
293 K | 810
298 K | 570
303 K | 410
308 K | 310
333 K | 84

CC[n+]1ccccc1.N#C[N-]C#N + O
100 kPa
Conditions | electrical conductivity [S/m] | viscosity [mPa·s]
298.15 K, x1 = 0.9411 | 2.15 | –
298.15 K, x1 = 0.9677 | 1.94 | –
298.15 K, x2 = 0.01044 | – | 16.52
303.15 K, x1 = 0.9542 | 2.27 | –
303.15 K, x1 = 0.9756 | – | 13.97
308.15 K, x1 = 0.9542 | 2.58 | –
308.15 K, x2 = 0.01044 | – | 12.55
313.15 K, x1 = 0.9355 | – | 10.08
313.15 K, x1 = 0.9619 | – | 10.49
313.15 K, x1 = 0.9677 | 2.82 | –
313.15 K, x2 = 0.01044 | – | 11.02
318.15 K, x1 = 0.9542 | 3.25 | –
323.15 K, x1 = 0.9756 | – | 8.27
328.15 K, x1 = 0.9756 | – | 7.44
333.15 K, x1 = 0.9283 | 4.91 | –
333.15 K, x1 = 0.9411 | 4.81 | –
333.15 K, x1 = 0.9677 | 4.61 | –
338.15 K, x1 = 0.9355 | – | 5.76
338.15 K, x1 = 0.9485 | – | 5.86
338.15 K, x1 = 0.9756 | – | 6.1

CCCCCC[n+]1ccn(C)c1.O=S(=O)([N-]S(=O)(=O)C(F)(F)C(F)(F)F)C(F)(F)C(F)(F)F + O
101 kPa, x2 = 0.187
Conditions | electrical conductivity [S/m] | viscosity [mPa·s]
293.15 K | – | 122
295.15 K | 0.15 | –
